Assay results published in ChEMBL document CHEMBL5335829, “Akedanones A-C, In Vitro and In Vivo Antiplasmodial 2,3-Dihydronaphthoquinones Produced by Streptomyces sp. K20-0187” (J Nat Prod, 2024).
pIC50: −log10 of the molar value. Converted amounts (≈) assume the structure as drawn. The source made the active and inactive calls. The calls are words filed in the database; no cut-off is given here.

Assays:
Plasmodium falciparum [1] = experiment: Antiplasmodial activity against chloroquine-resistant Plasmodium falciparum K1 assessed as parasite growth inhibition; format: functional, organism-based
Plasmodium falciparum [2] = experiment: Antiplasmodial activity against chloroquine-sensitive Plasmodium falciparum FCR3 assessed as parasite growth inhibition; format: functional, organism-based
[3] = Cytotoxicity against human MRC5 cells assessed as inhibition of cell growth; format: toxicity, cell-based
[4] = Selectivity index, ratio of IC50 for cytotoxicity against human MRC5 cells assessed as inhibition of cell growth to IC50 for antiplasmodial activity against chloroquine-resistant Plasmodium falciparum K1 assessed as parasite growth inhibition; format: toxicity, cell-based; conditions: MRC5 cells versus Plasmodium falciparum K1, read-out: Ratio IC50
[5] = Selectivity index, ratio of IC50 for cytotoxicity against human MRC5 cells assessed as inhibition of cell growth to IC50 for antiplasmodial activity against […] assessed as parasite growth inhibition; format: toxicity, cell-based; conditions: MRC5 cells versus Plasmodium falciparum FCR3, read-out: Ratio IC50
Staphylococcus aureus [6] = experiment: Antimicrobial activity against Staphylococcus aureus KB210 ATCC 6538P at > 10 ug incubated for 1 to 2 days by paper disc method; format: functional, organism-based; conditions: dose > 10.0 µg, time 1-2 day
Staphylococcus aureus [7] = experiment: Antimicrobial activity against Staphylococcus aureus KB210 ATCC 6538P assessed as reduction in bacterial growth incubated for 1 to 2 days by paper disc method; format: functional, organism-based; conditions: time 1-2 day
Kocuria rhizophila [8] = experiment: Antimicrobial activity against Kocuria rhizophila KB212 ATCC 9341 assessed as reduction in bacterial growth incubated for 1 to 2 days by paper disc method; format: functional, organism-based; conditions: time 1-2 day
Escherichia coli = experiment: Antimicrobial activity against Escherichia coli KB213 NIHJ assessed as reduction in bacterial growth incubated for 1 to 2 days by paper disc method; format: functional, organism-based; conditions: time 1-2 day
Xanthomonas oryzae = experiment: Antimicrobial activity against Xanthomonas oryzae KB88 assessed as reduction in bacterial growth incubated for 1 to 2 days by paper disc method; format: functional, organism-based; conditions: time 1-2 day
Candida albicans = experiment: Antimicrobial activity against Candida albicans KF assessed as reduction in […] growth KF1 ATCC 64584 incubated for 1 to 2 days by paper disc method; format: functional, organism-based; conditions: time 1-2 day
B16 = experiment: Cytotoxicity against mouse B16 cells assessed as reduction in cell growth incubated for 3 days; format: functional, cell-based; conditions: B16, 72 h
HeLa S3 = experiment: Cytotoxicity against human HeLa S3 cells assessed as reduction in cell growth incubated for 3 days; format: functional, cell-based; conditions: HeLa S3, 72 h
Kocuria rhizophila [9] = experiment: Antimicrobial activity against Kocuria rhizophila KB212 ATCC 9341 at 30 ug incubated for 1 to 2 days by paper disc method; format: functional, organism-based; conditions: dose 30.0 µg, time 1-2 day
Plasmodium berghei = experiment: Antiplasmodial activity against Plasmodium berghei infected in ICR mouse model assessed as reduction in parasitaemia at 5 mg/kg, ip measured for 4 days by peters 4 day suppressive test; format: functional; set-up: scale not given: the % may be the effect or the level left
[10] = Toxicity in ICR mouse assessed as body weight loss at 5 mg/kg, ip measured for 4 days; format: organism-based; conditions: in vivo, 96 h, time 4 day
Plasmodium falciparum [11] = experiment: Antiplasmodial activity against Plasmodium falciparum Dd2 assessed as inhibition of parasite growth; format: functional, organism-based
Plasmodium falciparum [12] = experiment: Antimalarial activity against chloroquine-resistant Plasmodium falciparum K1 assessed as parasite growth inhibition; format: functional, organism-based
[13] = Selectivity index, ratio of IC50 for cytotoxicity against human MRC5 cells assessed as inhibition of cell growth to IC50 for antimalarial activity against chloroquine-resistant Plasmodium falciparum K1 assessed as parasite growth inhibition; format: toxicity, cell-based; conditions: MRC5 cells versus Plasmodium falciparum K1, read-out: Ratio IC50
[14] = Selectivity index, ratio of IC50 for cytotoxicity against human MRC5 cells assessed as inhibition of cell growth to IC50 for antimalarial activity against […] assessed as parasite growth inhibition; format: toxicity, cell-based; conditions: MRC5 cells versus Plasmodium falciparum FCR3, read-out: Ratio IC50
[15] = Acute toxicity in ICR mouse assessed as sedation at 60 mg/kg, ip and measured for 2 hrs; format: organism-based; conditions: in vivo

Structure (SMILES) | pIC50 (Plasmodium falciparum [1]) | pIC50 (Plasmodium falciparum [2]) | pIC50 [3] | selectivity ratio [4] | selectivity ratio [5] | Activity (Staphylococcus aureus [6]) | Activity (Staphylococcus aureus [7]) | Activity (Kocuria rhizophila [8]) | Activity (Escherichia coli) | Activity (Xanthomonas oryzae) | Activity (Candida albicans) | Activity (Plasmodium berghei) [%] | Activity [10] | other results
C=CC(C)(C)c1c(O)cc2c(c1O)C(=O)[C@@](C)(O)[C@H](CC=C(C)C)C2=O | 4.36 | 4.29 | 4.03 | 2.2 | 1.8 | Active | Active | Active | Active | Active | Active |  |  | 
COC1=C(C)C(=O)c2c(cc(O)c3c2O[C@H](C)[C@]3(C)CCC=C(C)C)C1=O |  |  |  |  |  |  |  |  |  |  |  |  |  | IC50 (B16): 0.63 µg/mL (≈ 1.7 µM); IC50 (HeLa S3): 1.22 µg/mL (≈ 3.29 µM)
COC1=C(C)C(=O)c2c(cc3c(c2O)C(C)(CCC=C(C)C)C(C)O3)C1=O (centres undefined) | 6.52 | 7.22 | 5.77 | 5.7 | 28.3 |  | Active | Active | Active | Active | Active | 43.1 | Non-Toxic | Activity (Kocuria rhizophila [9]): inactive
CC(C)=CCC1=C(O)C(=O)c2c(O)ccc(O)c2C1=O |  |  |  |  |  |  |  |  |  |  |  |  |  | IC50 (Plasmodium falciparum [11]): 0.82 µg/mL (≈ 2.99 µM)
C[C@@H]1CC[C@H]2[C@@H](C)C(=O)O[C@@H]3O[C@@]4(C)CC[C@@H]1[C@]32OO4 [ARTEMISININ] |  |  | < 4.60 |  |  |  |  |  |  |  |  |  |  | pIC50 (Plasmodium falciparum [12]): 7.52; selectivity ratio [13]: > 800; selectivity ratio [14]: > 800
CCN(CC)CCCC(C)Nc1ccnc2cc(Cl)ccc12 (centres undefined) [CHLOROQUINE] |  |  | < 4.60 |  |  |  |  |  |  |  |  |  |  | 
C=CC(C)(C)c1c(O)cc2c(c1O)C(=O)[C@@]1(C)O[C@@]1(CC=C(C)C)C2=O | 6.70 | 7.10 | 6.15 | 3.5 | 8.8 | Active | Active | Active | Active | Active | Active | 47.6 | Non-Toxic | Activity [15]: Non-Toxic
C=CC(C)(C)c1c(O)cc2c(c1O)C(=O)[C@@](C)(O)[C@@H](CC=C(C)C)C2=O | 4.84 | 4.66 | 4.16 | 4.7 | 3.2 | Active | Active | Active | Active | Active | Active |  |  | 
C[C@H]1[C@H](OC(=O)CCC(=O)O)O[C@@H]2O[C@@]3(C)CC[C@H]4[C@H](C)CC[C@@H]1[C@@]24OO3 [ARTESUNATE] |  |  |  |  |  |  |  |  |  |  |  | 94.2 | Non-Toxic | 
